Source: US20250230193A1, “CYCLIC COMPOUND HAVING SELECTIVE KRAS INHIBITORY EFFECT ON HRAS AND NRAS” (CHUGAI SEIYAKU KABUSHIKI KAISHA, priority 2022, published 2025)
*1 amine or outer side, *2 acyl side, *3 side chain or, on linkers, in order; H or OH if unused. Where a SMILES comes first, the peptide text is derived from it. Bridges are numbered along the chain shown (N, C = ends). [ ]: non-standard residue; d: D form. The star is where a group is joined. hPhe(3-Cl-4-CF3) = N[C@@H](CCc1ccc(C(F)(F)F)c(Cl)c1)C(=O)O; X29 = Cc1ccc(C[C@@H](C(=O)[*:2])N(CC2CCCC2)[*:1])cc1; NMeGly(cPent) = CN[C@H](C(=O)O)C1CCCC1; NMeD = CN[C@@H](CC(=O)O)C(=O)O; NMeL = CN[C@@H](CC(C)C)C(=O)O; Morpholide = C1CN(*)CCO1; NMeA = CN[C@@H](C)C(=O)O; Ac5c = NC1(C(=O)O)CCCC1; Aze = O=C(O)[C@@H]1CCN1; Sar = CNCC(=O)O

Legend:
[1] = biological target: GDP-bound NRAS wild-type protein (Homo sapiens, UniProt P01111); assay: Binding to NRAS by surface plasmon resonance (SPR), Single Cycle Kinetics; settings: for NRAS/KRAS (ratio of KD value with respect to GDP-bound NRAS wild-type protein to KD value with respect to KRAS): class symbols; for NRAS/KRAS (ratio of KD value for NRAS to KD value for KRAS) / NRAS/KRAS (ratio of KD value with respect to NRAS to KD value with respect to KRAS): GDP-bound NRAS wild-type vs GDP-bound KRAS wild-type
GDP-bound NRAS wild-type protein, sequence (P01111 whole entry): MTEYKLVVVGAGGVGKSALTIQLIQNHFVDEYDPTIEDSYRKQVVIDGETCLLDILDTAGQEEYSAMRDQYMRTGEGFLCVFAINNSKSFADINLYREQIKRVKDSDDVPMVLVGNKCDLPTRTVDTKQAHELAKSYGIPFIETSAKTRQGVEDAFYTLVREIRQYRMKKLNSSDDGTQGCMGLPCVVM

[2] = biological target: GDP-bound HRAS wild-type protein (Homo sapiens, UniProt P01112); assay: Binding to HRAS by surface plasmon resonance (SPR), Single Cycle Kinetics; settings: for HRAS/KRAS (ratio of KD value with respect to GDP-bound HRAS wild-type protein to KD value with respect to KRAS): class symbols; for HRAS/KRAS (ratio of KD value for HRAS to KD value for KRAS) / HRAS/KRAS (ratio of KD value with respect to HRAS to KD value with respect to KRAS): GDP-bound HRAS wild-type vs GDP-bound KRAS wild-type
GDP-bound HRAS wild-type protein, sequence (P01112 whole entry): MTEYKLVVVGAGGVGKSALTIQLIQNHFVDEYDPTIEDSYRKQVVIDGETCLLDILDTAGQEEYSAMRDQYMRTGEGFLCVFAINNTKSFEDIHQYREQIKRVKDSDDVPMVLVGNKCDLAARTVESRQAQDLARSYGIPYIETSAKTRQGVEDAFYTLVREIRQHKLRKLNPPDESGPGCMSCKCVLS

CCC(CC)[C@H]1C(=O)N(C)[C@H](C(=O)N(C)C)CC(=O)N(C)[C@@H](COC)C(=O)N[C@@H]([C@@H](C)CC)C(=O)N(C)CC(=O)N(C)[C@H]2C/C=C\CCN(C2=O)[C@@H](Cc2ccc(C)cc2)C(=O)N(C)CC(=O)N[C@@H](CCc2cc(F)c(C(F)(F)F)c(F)c2)C(=O)N2CCCC[C@H]2C(=O)NC2(CC(C)(C)C2)C(=O)N1C [PP2922]
NRAS/KRAS (ratio of KD value with respect to GDP-bound NRAS wild-type protein to KD value with respect to KRAS) ([1]; KD ratio NRAS/KRAS): AA (a compound having 20 or more is denoted as AA) | HRAS/KRAS (ratio of KD value with respect to GDP-bound HRAS wild-type protein to KD value with respect to KRAS) ([2]; KD ratio HRAS/KRAS): A (a compound having 10 or more and less than 20 is denoted as A)

CCC[C@H]1C(=O)N[C@@H]([C@@H](C)CC)C(=O)N(C2CC2)CC(=O)N(C)[C@H]2C/C=C\CCN(C2=O)[C@@H](Cc2ccc(C)cc2)C(=O)N(C)CC(=O)N[C@@H](CCc2ccc(C(F)(F)F)c(OC)c2)C(=O)N2C[C@H](OCC)C[C@H]2C(=O)NC2(CC(C)(C)C2)C(=O)N(C)[C@@H](CC(C)(C)C)C(=O)N(C)[C@H](C(=O)N(C)C)CC(=O)N1C [PP2722]
NRAS/KRAS (ratio of KD value with respect to GDP-bound NRAS wild-type protein to KD value with respect to KRAS) ([1]; KD ratio NRAS/KRAS): B (a compound having 3 or more and less than 10 is denoted as B) | HRAS/KRAS (ratio of KD value with respect to GDP-bound HRAS wild-type protein to KD value with respect to KRAS) ([2]; KD ratio HRAS/KRAS): B (a compound having 3 or more and less than 10 is denoted as B)

CCCOC[C@H]1C(=O)N[C@@H]([C@@H](C)CC)C(=O)N(C)CC(=O)N(C)[C@H]2C/C=C\CCN(C2=O)[C@@H](Cc2ccc(C(F)(F)F)cc2)C(=O)N(C)CC(=O)N[C@@H](CCc2ccc(C(F)(F)F)c(OC)c2)C(=O)N2C[C@H](OCC)C[C@H]2C(=O)NC2(CC(C)(C)C2)C(=O)N(C)[C@@H](C2CCCC2)C(=O)N(C)[C@H](C(=O)N(C)CC)CC(=O)N1C [PP1973]
NRAS/KRAS (ratio of KD value for NRAS to KD value for KRAS) ([1]; KD ratio, SPR): A (a compound having 10 or more and less than 20 is denoted as A) | HRAS/KRAS (ratio of KD value for HRAS to KD value for KRAS) ([2]; KD ratio, SPR): B (a compound having 3 or more and less than 10 is denoted as B)

CCO[C@@H]1C[C@H]2C(=O)NC3(CCCC3)C(=O)N(C)[C@@H](C3CCCC3)C(=O)N(C)[C@H](C(=O)N3CCOCC3)CC(=O)N(C)[C@@H](CC)C(=O)N[C@@H]([C@@H](C)CC)C(=O)N(C)CC(=O)N(C)[C@H]3CC(C)=CCN(C3=O)[C@@H](Cc3ccc(C(F)(F)F)cc3)C(=O)N(C)CC(=O)N[C@@H](CCc3cc(F)c(C(F)(F)F)c(F)c3)C(=O)N2C1 [PP1043]
NRAS/KRAS (ratio of KD value with respect to NRAS to KD value with respect to KRAS) ([1]; KD ratio, SPR): C (A compound having a KD ratio of 0.1 or more and less than 3 is denoted as C) | HRAS/KRAS (ratio of KD value with respect to HRAS to KD value with respect to KRAS) ([2]; KD ratio, SPR): C (A compound having a KD ratio of 0.1 or more and less than 3 is denoted as C)

CC[C@H](C)[C@@H]1NC(=O)[C@H](CC(C)C)N(C)C(=O)C[C@@H](C(=O)N2CCOCC2)N(C)C(=O)[C@H](C2CCCC2)N(C)C(=O)C2(CCCC2)NC(=O)[C@@H]2CCCN2C(=O)[C@H](CCc2ccc(C(F)(F)F)c(Cl)c2)NC(=O)CN(C)C(=O)[C@H](Cc2ccc(C)cc2)N(CC2CCCC2)C(=O)[C@@H]2CCN2C(=O)[C@H](C)N(C)C1=O [PP0084] ([NMeL]I[NMeA][Aze][X29][Sar][hPhe(3-Cl-4-CF3)]P[Ac5c][NMeGly(cPent)][NMeD]-Morpholide; lactam N-11)
NRAS/KRAS (ratio of KD for GDP-bound NRAS wild-type to KD for KRAS) ([1]; KD ratio NRAS/KRAS, SPR): C (A compound having a KD ratio of 0.1 or more and less than 3 is denoted as C) | HRAS/KRAS (ratio of KD for GDP-bound HRAS wild-type to KD for KRAS) ([2]; KD ratio HRAS/KRAS, SPR): B (a compound having 3 or more and less than 10 is denoted as B)

CCO[C@@H]1C[C@H]2C(=O)NC3(CC(C)(C)C3)C(=O)N(C)[C@@H](C(CC)CC)C(=O)N(C)[C@H](C(=O)N3CCCC3)CC(=O)N(C)[C@@H](C)C(=O)N[C@@H]([C@@H](C)CC)C(=O)N(C)CC(=O)N(C)[C@H]3C/C=C\CCN(C3=O)[C@@H](Cc3ccc(C)cc3)C(=O)N(C)CC(=O)N[C@@H](CCc3ccc(C(F)(F)F)c(Cl)c3)C(=O)N2C1 [PP2152]
NRAS/KRAS (ratio of KD value with respect to NRAS to KD value with respect to KRAS) ([1]; SPR): AA (a compound having 20 or more is denoted as AA) | HRAS/KRAS (ratio of KD value with respect to HRAS to KD value with respect to KRAS) ([2]; SPR): A (a compound having 10 or more and less than 20 is denoted as A)

CC[C@H](C)[C@@H]1NC(=O)[C@H](CC)N(C)C(=O)C[C@@H](C(=O)N(C)C)N(C)C(=O)[C@H](C2CCCC2)N(C)C(=O)C2(CCCC2)N(C)C(=O)[C@@H]2CCCN2C(=O)[C@H](CCc2cc(F)c(C(F)(F)F)c(F)c2)NC(=O)CN(C)C(=O)[C@H](Cc2ccc(C)cc2)N2CC/C=C\C[C@@H](C2=O)N(C)C(=O)CN(C)C1=O [PP1807]
NRAS/KRAS (ratio of KD value for NRAS to KD value for KRAS) ([1]; KD ratio, SPR): A (a compound having 10 or more and less than 20 is denoted as A) | HRAS/KRAS (ratio of KD value for HRAS to KD value for KRAS) ([2]; KD ratio, SPR): B (a compound having 3 or more and less than 10 is denoted as B)

CCC[C@H]1C(=O)N[C@@H]([C@@H](C)CC)C(=O)N(C)CC(=O)N(C)[C@H]2C/C=C\CCN(C2=O)[C@@H](Cc2ccc(C(F)(F)F)cc2)C(=O)N(C)CC(=O)N[C@@H](CCc2ccc(C(F)(F)F)c(Cl)c2)C(=O)N2C[C@H](OCC)C[C@H]2C(=O)NC2(CC(C)(C)C2)C(=O)N(C)[C@@H](C2CCCC2)C(=O)N(C)[C@H](C(=O)N(C)C)CC(=O)N1C [PP1748]
NRAS/KRAS (ratio of KD value for NRAS to KD value for KRAS) ([1]; KD ratio, SPR): A (a compound having 10 or more and less than 20 is denoted as A) | HRAS/KRAS (ratio of KD value for HRAS to KD value for KRAS) ([2]; KD ratio, SPR): B (a compound having 3 or more and less than 10 is denoted as B)
